From PMC7916522, “In Vitro and In Vivo Anti-Candida Activity and Structural Analysis of Killer Peptide (KP)-Derivatives” (Journal of Fungi, 2021)
Peptide text beside a SMILES is read from it.

Tests used:
Candida albicans SC5314 = assay: CFU assay, neutralization of candidacidal activity by laminarin; format: cell-based; conditions: peptide at its minimal candidacidal concentration
Experimental: The candidacidal activity of KP-derivatives, in comparison to KP, was evaluated by a previously described colony forming unit (CFU) assay against the reference C. albicans strain SC5314 [25]. Briefly, approximately 500 yeast cells were incubated at 37 °C for 6 h in 100 µL of distilled water in the presence or absence (control growth) of the synthetic peptides at serial dilutions. After spreading on Sabouraud Dextrose agar (SDA) plates and incubation for 48–72 h at 30 °C, CFUs were counted. Peptide fungicidal activity was determined as percentage of CFU inhibition, according to the formula 100-(CFUs peptide treated/CFUs control growth) × 100. Each assay was carried out in triplicate and at least two independent experiments were performed for each condition. Half maximal effective concentration (EC50) was calculated by nonlinear regression analysis using GraphPad Prism 5 software (San Diego, CA, USA). CFU assays were also performed in order to verify if laminarin (100 or 200 µg/mL), a soluble β-1,3-glucan, could neutralize the candidacidal activity of KP-derivatives at their minimum fungicidal concentration [25].

LLC-MK2 cells = conditions: 24 h incubation, resazurin assay; for Cell viability (%) 10 µM: peptide 10 µM; for Cell viability (%) 25 µM: peptide 25 µM; for Cell viability (%) 50 µM: peptide 50 µM
Experimental: (§1) A stock solution of peptides (20 mg/mL) was prepared in dimethyl sulfoxide (DMSO), then proper dilutions were made for evaluation of biological activities. DMSO at proper concentration was present in controls (without peptides). All the peptides were evaluated for their hemolytic activity against freshly collected human red blood cells, while cytotoxicity against monkey kidney epithelial cells LLC-MK2 was determined by resazurin assay, as previously described.

human red blood cells = conditions: peptide 25 µM
Experimental: as §1

Row | SMILES | C. albicans Growth Inhibition (%) in the Presence of Laminarin 100 µg/mL (Candida albicans SC5314) [%] | C. albicans Growth Inhibition (%) in the Presence of Laminarin 200 µg/mL (Candida albicans SC5314) [%] | Cell viability (%) 10 µM (LLC-MK2 cells) [%] | Cell viability (%) 25 µM (LLC-MK2 cells) [%] | Cell viability (%) 50 µM (LLC-MK2 cells) [%] | hemolysis after 30 min (human red blood cells; 30 min incubation) [%] | hemolysis after 120 min (human red blood cells; 120 min incubation) [%]
1 | CSCC[C@H](NC(=O)[C@@H](NC(=O)[C@@H](NC(=O)[C@H](CCCCN)NC(=O)[C@H](C)N)C(C)C)[C@@H](C)O)C(=O)N[C@H](C(=O)N[C@@H](CS)C(=O)N[C@@H](CO)C(=O)N[C@@H](C)C(=O)N[C@@H](CO)C(=O)O)[C@@H](C)O [A10S (KP)] (H-AKVTMTCSAS-OH) | 96.39 ± 1.68 | 1.80 ± 0.49 | 93.59 | 88.20 | 89.71 | 1.13 | –
2 | CSCC[C@H](NC(=O)[C@@H](NC(=O)[C@@H](NC(=O)[C@H](CCCCN)NC(=O)[C@@H](N)Cc1c[nH]cn1)C(C)C)[C@@H](C)O)C(=O)N[C@H](C(=O)N[C@@H](CS)C(=O)N[C@@H](CO)C(=O)N[C@@H](C)C(=O)N[C@@H](CO)C(=O)O)[C@@H](C)O [Peptide H10S] (H-HKVTMTCSAS-OH) | 6.20 ± 3.71 | – | 96.77 | 94.90 | 90.99 | – | –
3 | CSCC[C@H](NC(=O)[C@@H](NC(=O)[C@@H](NC(=O)[C@@H](N)CCCCN)C(C)C)[C@@H](C)O)C(=O)N[C@H](C(=O)N[C@@H](CS)C(=O)N[C@@H](CO)C(=O)N[C@@H](C)C(=O)N[C@@H](CO)C(=O)O)[C@@H](C)O [Peptide K9S] (H-KVTMTCSAS-OH) | 31.09 ± 1.71 | 0.68 ± 0.97 | 100 | 98.55 | 95.86 | – | –
4 | CSCC[C@H](NC(=O)[C@@H](NC(=O)[C@@H](NC(=O)[C@H](CCCCN)NC(=O)[C@@H](N)CCCCN)C(C)C)[C@@H](C)O)C(=O)N[C@H](C(=O)N[C@@H](CS)C(=O)N[C@@H](CO)C(=O)N[C@@H](C)C(=O)N[C@@H](CO)C(=O)O)[C@@H](C)O [Peptide K10S] (H-KKVTMTCSAS-OH) | 1.07 ± 0.39 | – | 93.74 | 100 | 90.95 | – | 2.42
5 | CSCC[C@H](NC(=O)[C@@H](NC(=O)[C@@H](NC(=O)[C@H](CCCCN)NC(=O)[C@@H](N)CC(C)C)C(C)C)[C@@H](C)O)C(=O)N[C@H](C(=O)N[C@@H](CS)C(=O)N[C@@H](CO)C(=O)N[C@@H](C)C(=O)N[C@@H](CO)C(=O)O)[C@@H](C)O [Peptide L10S] (H-LKVTMTCSAS-OH) | 0 | – | 95.70 | 93.44 | 98.07 | – | –
6 | CSCC[C@H](NC(=O)[C@@H](NC(=O)[C@@H](NC(=O)[C@H](CCCCN)NC(=O)[C@@H]1CCCN1)C(C)C)[C@@H](C)O)C(=O)N[C@H](C(=O)N[C@@H](CS)C(=O)N[C@@H](CO)C(=O)N[C@@H](C)C(=O)N[C@@H](CO)C(=O)O)[C@@H](C)O [Peptide P10S] (H-PKVTMTCSAS-OH) | 97.71 ± 0.46 | 3.10 ± 4.38 | 93.25 | 90.20 | 89.77 | – | –
7 | CSCC[C@H](NC(=O)[C@@H](NC(=O)[C@@H](NC(=O)[C@H](CCCCN)NC(=O)[C@@H](N)CO)C(C)C)[C@@H](C)O)C(=O)N[C@H](C(=O)N[C@@H](CS)C(=O)N[C@@H](CO)C(=O)N[C@@H](C)C(=O)N[C@@H](CO)C(=O)O)[C@@H](C)O [Peptide S10S] (H-SKVTMTCSAS-OH) | 99.12 ± 0.50 | 60.73 ± 13.13 | 99.77 | 99.75 | 91.09 | – | –
8 | CSCC[C@H](NC(=O)[C@@H](NC(=O)[C@@H](NC(=O)[C@H](CCCCN)NC(=O)[C@@H](N)Cc1ccc(O)cc1)C(C)C)[C@@H](C)O)C(=O)N[C@H](C(=O)N[C@@H](CS)C(=O)N[C@@H](CO)C(=O)N[C@@H](C)C(=O)N[C@@H](CO)C(=O)O)[C@@H](C)O [Peptide Y10S] (H-YKVTMTCSAS-OH) | 5.57 ± 4.84 | – | 96.89 | 95.35 | 97.18 | – | –
